Data from patent publication US20120136005A1, “E[…] THE TREATMENT OF ANXIETY” (MERZ PHARMA GmbH & CO. KGaA, priority 2009, published 2012).
“Also recorded” adds a separate entry of the source.

Columns and labels:
[1] = tested on: unilaterally 6-OHDA-lesioned rats; assay: Turning behaviour induced by high dose of L-DOPA in 6-OHDA-lesioned rats; assay type: in vivo, Sprague Dawley rats; details: 0.3, 1.25 and 5 mg/kg, 30 min before the test; FIG. 3
Protocol: Male Sprague Dawley rats (Elevage Janvier, Le Genest Saint Isle, France) weighing between 220 and 250 g at the beginning of the study are used in these experiments. They are housed under a 12 h light/dark cycle with free access to standard pelleted food and tap water. Animal treatment and experimental procedures are approved by local ethical committees (Regierungspräsidium Darmstadt; Germany).
Dopamine-denervating lesions are performed on rats anaesthetized with a 5:1 mixture of ketamine and xylazine (1 ml/kg, i.p.). […] The animals' turning behaviour is recorded in an automated rotometer (TSE Rotameter System, TSE-Systems GmbH, Bad Homburg, Germany) over a 90 min period after the intraperitoneal (i.p.) injection of 2.5 mg/kg dexamphetamine sulphate dissolved in saline. […]
In order to evaluate the effect of eltoprazine on parkinsonian symptoms and its interaction with L-DOPA, rotational behaviour is evaluated. The numbers of ipsilateral and contralateral turns are recorded in an automated rotometer (TSE Rotameter System, TSE-Systems GmbH, Bad Homburg, Germany) over a period of 180 min. […]

[2] = tested on: Sprague-Dawley rats; assay: Contextual fear conditioning; assay type: in vivo; details: acute s.c. 0.078 to 1.25 mg/kg, 60 min before the test; FIG. 4
Protocol: (§1) For contextual fear conditioning, open field, fear potentiated startle and elevate plus maze, experimentally naive adult male Sprague-Dawley rats (250-300 g; Janvier, France) were housed in groups of four per cage. Colony room temperature and humidity were maintained respectively at 20±1° C. and 60±3%. Food and water were available ad libitum and the animals were kept under an alternating 12 h/12 h day-night cycle (lights on at 07.00) for at least 6 days before the experiments were started. All experiments were conducted during the light period of the day-night cycle. For the Vogel test, male experimentally naive Wistar rats (180-220 g, State Breeding Farm “Rappolovo”, St. Petersburg, Russia; N=109) were used. Each animal was used only once.
Eltoprazine hydrochloride was dissolved in sterile water. […]
For training and testing, subjects were placed in test cages (30 cm wide, 29 cm high and 25 cm deep) equipped with a grid floor consisting of 18 stainless steel bars (3 mm ID). […] 24 h after conditioning, subjects are placed back in the test cages and freezing is recorded for a period of 5 min. […]
Percent of freezing during the 5 min expression test on day 2 is taken for statistical analysis. Data are analysed by one-way ANOVA on ranks followed by rank sum tests.

[3] = tested on: Sprague-Dawley rats; assay: Fear potentiated startle; assay type: in vivo; details: acute treatment
Protocol: as §1
(§2) Eltoprazine hydrochloride was dissolved in sterile water. Administration of eltoprazine or vehicle (sterile water) was done s.c. (0.078 to 1.25 mg/kg) once, 60 minutes (30 min in the Vogel test) prior to start of the behavioural assay.

[4] = tested on: Wistar rats; assay: Shock-suppressed drinking (Vogel) test; assay type: in vivo; details: acute s.c., 30 min before the test; not statistically significant; FIG. 7
Protocol: as §1, §2
The apparatus consisted of 4 identical standard operant chambers with grid metal floor. Water bottle spout was protruded through the wall and connected to a shock device. […] Latency to start drinking was registered, and total drinking time and the licks number were recorded during 5 min timed from the first lick of the bottle spout. […]

In the case of `c1cc2c(c(N3CCNCC3)c1)OCCO2` [eltoprazine, 1-(2,3-dihydro-1,4-benzodioxin-5-yl)piperazine], the “interference with the antiparkinsonian effect of L-DOPA (turning behaviour)” value [1] is reported as “does not interfere”, the “time spent freezing during re-exposure to the conditioning context” value [2] is reported as “dose-dependently induced anxiolytic-like effects; also recorded: very strong anxiolytic effect” and the “effect in fear potentiated startle, first experiment” value [3] is reported as “anxiolytic-like effect”. For the same compound, the “effect in fear potentiated startle, repetition study” value ([3]; same doses) was “strong trend” and the “number of accepted punishments (shocks received) in the Vogel test” value [4] was “tendency to increase; also recorded: trend for anxiolytic activity”.
